The test system of this assay is RAW264.7. The assay is described as follows: Antiresorptive activity in mouse RAW264.7 cells assessed as inhibition of tartrate-resistant acid phosphatase activity at 60 uM. The arrangement: scale not given: the % may be the effect or the level left.

Molecules are shown by their SMILES.

For `CCCCC/C(=N/S(=O)(=O)c1ccc(C)cc1)N1C(C)CCCC1C` (stereo unspecified), the Activity came out at 0%.

The record behind these values is ChEMBL document CHEMBL1153225 (Bioorg Med Chem Lett, 2010).
